Test results from patent US20160208249A1, “Compositions and Methods for Inducing Senescence in Cancer Cells” (INSERM (Institut National de la Sante et de la Recherche …, priority 2013, published 2016).

Experiments:
[1] = tested on: NF-kB; assay: NF-kB luciferase reporter activity in melanoma cells; type: cell-based, human; details: A375, 4 days; PGJ2 1.5 μM, Bay 11-7082 2 μM, sulfasalazine 50 μM (FIG. 8A)
Protocol: Cells were transfected with NF-kB-luciferase reporter (NF-kB-Luc, Qiagen Germantown Md.) sensitive to overall NF-kB activation and with CMV promoter b-Galactosidase (pCMVβGal) for normalization purpose. Lipofectamine 2000 (Invitrogen, Carlsbad, Calif.) was used as transfection agent. 48 hrs post transfection, luciferase activity was tested using the luciferase assay system kit (Promega) and measured with the Clarity Luminescence Microplate Reader (Bio-Tek Instruments, Winooski, Vt.).
For gene reporter activity post gene silencing using RNA interference, cells were first transfected with SiRNAs according to experimental design using as transfecting agent Lipofectamine RNAimax as previously described. 24 hrs post transfection cells were again transfected using EZH2 promoter Renilla construct or NF-kB-luciferase reporter and pCMVβGal. 48 hrs after addition of the reporter plasmid, cells were harvested and luciferase or Renilla activity measured as above mentioned.

[2] = tested on: EZH2; assay: qRT-PCR analysis of EZH2 mRNA in A375 cells; type: cell-based, human; details: for EZH2 mRNA: A375 cells treated for 3 days (FIG. 1B)
Protocol: Transfection experiments with Small interfering RNAs (siRNAs): Typically 30 000 to 50 000 cells were plated in 6-well culture plates and transfected 24 hours later with 25 nM or 50 nM siRNAs using Lipofectamine RNAimax (Invitrogen) according to manufacturer protocol. If not otherwise described cells were incubated with the si-RNA for 4 days prior harvesting for further experiments. […] As non specific control, a scramble sequence siRNA was used (cat. 16106, Ambion, Life Technologies, Grand Island, N.Y.).
(§1) Quantitative RT-PCR analysis: Total RNA was isolated from cells using RNAeasy minikit (Qiagen) according to manufacturer's procedure. Reverse transcription was performed using AMV reverse transcription system (Promega) while quantitative PCR was performed with Power Sybr green (Applied biosystem, Life Technologies, Grand Island, N.Y.) following manufacturer instructions (List of primers are available in supplementary information). PCR reaction was carried on a Step One plus Real-Time PCR system (Applied Biosystems). All analyses were done in triplicate and melting curve analysis was performed to control for product quality and specificity. Expression levels were calculated using the comparative method of relative quantification, with SB34 as normalizer. Data were analyzed for their statistical significance applying Student's t-test. Results are presented as mean±SEM relative to the control.
(§2) Transcription Factor Decoys (TFD) preparation and treatment. Double stranded TFDs were obtained by annealing at 95 C two complementary single stranded oligos (purchased from Invitrogen). TFDs were designed by copying the NF-kB2 sequences discovered on the EZH2 promoter (i.e. p52 decoy referred as and TFD4 as previously described). […] If not otherwise described cells were incubated with the TFDs for 4 days prior harvesting for qPCR evaluation of EZH2 levels or Senescence associated-β-Gal assay. As non specific control, a scramble sequence was used.

[3] = tested on: EZH2; assay: Western blot of EZH2 protein in melanoma cell lines; type: cell-based, human; details: metastatic melanoma cell lines carrying or not B-RAF V600E; PGJ2 2 μM 3 days, Bay 11-7082 2 μM 4 days
Protocol: Western Blot: Twenty to thirty micrograms of total proteins were run on 12% SDS-polyacrylamide gel electrophoresis. After transfer to polyvinylidene fluoride membrane (Millipore), immunoblotting was performed according to Laemli method. Glyceraldehyde-3-phosphate dehydrogenase (GAPDH), β-Actin or ERK2 were used as loading controls. Membranes were then incubated with an enhanced chemiluminescence system (Amersham) and immunoreactive bands were visualized using the luminescent image analyzer Fujifilm LAS-4000 (GE Healthcare).

[4] = tested on: EZH2; assay: EZH2 level in melanoma cells cultured from patients' metastases; type: cell-based, human; details: melanoma cells from nine patients' metastases, PGJ2 2 μM 3 days / 1.5 μM 4 days
Protocol: Cell Culture: HEK293, Human A375 (CRL-1619), SK-Mel-28 (HTB-72) and MeWo (HTB-65) melanoma cell lines were purchased from American Tissue Culture Collection (Molsheim, France). Human primary melanoma cells were extracted from metastatic melanoma specimens that were obtained from the Department of Dermatology and the Biobank of the University hospital of Nice, France. All patients provided informed written consent. Biopsy was dissected and digested for 1-2 h with collagenase A (0.33 U/ml), dispase (0.85 U/ml) and Dnase I (144 U/ml) with rapid shaking at 37° C. Large debris were removed by filtration through a 70-μm cell strainer. Viable cells were obtained by Ficoll gradient centrifugation. […]
as §1, with “PCR reaction was carried on a Step One plus Real-Time PCR system (Applied Biosystems). All analyses were done in triplicate and melting curve analysis was performed to control for product quality and specificity.” left out, “Results are presented as mean±SEM relative to the control.” left out

[5] = tested on: melanoma; details: cited from earlier work
[6] = tested on: A375 melanoma cells; assay: Senescence associated-β-Gal assay; type: cell-based, human; details: 4 days
Protocol: Senescence associated-β-Gal assay: Cells were washed then fixed for 15 min at RT and stained using the Senescence β-Galactosidase staining kit following manufacturer instruction (Cell Signaling, Beverly, Mass.). A blue color reflects the β-Gal activity.
as §2

| Compound | NF-kB activity [1] | EZH2 mRNA [2] | EZH2 at protein level [3] | senescence / SA-β-Gal activity [6] | further results |
| --- | --- | --- | --- | --- | --- |
| Cc1ccc(S(=O)(=O)/C=C/C#N)cc1 [Bay 11-7082] | inhibition of NF-kB activity | marked decrease | decrease of EZH2 at protein level |  |  |
| CCCCC/C=C/C=C1/C(=O)C=C[C@@H]1C/C=C\CCCC(=O)O [PGJ2, 15-deoxy-delta12,14-Prostaglandin J2] | inhibition of NF-kB activity | marked decrease | decrease of EZH2 at protein level |  | start of effect on EZH2 mRNA ([2]; A375, time and dose dependent (FIG. 1C)): ≤ 6 h; EZH2 protein level [4]: consistent decrease of EZH2 |
| O=C(O)c1cc(/N=N/c2ccc(S(=O)(=O)Nc3ccccn3)cc2)ccc1O [sulfasalazine] | inhibition of NF-kB activity | marked decrease | decrease of EZH2 at protein level |  |  |
| Ipilimumab: anti-CTLA-4 antibody used for the treatment of melanoma |  |  |  |  | patients responding to treatment ([5]; melanoma patients): 10%; overall survival ([5]; stage 4 melanoma patients): increased the overall survival |
| TFD1: p52 decoy, double stranded DNA ODN: forward ATCGGGTCTCC (SEQ ID NO: 6), reverse GGAGAGCCCGAT (SEQ ID NO: 7) (DNA, backbone and methylation of C not given here) |  |  |  | induce senescence |  |
| TFD4: p52 decoy, double stranded DNA ODN: forward ATCGGGGCTCACC (SEQ ID NO: 8), reverse GGTGAGCCCCGAT (SEQ ID NO: 9) (DNA, backbone and methylation of C not given here) |  |  |  | induce senescence |  |
